Measurements reported in patent publication US9518041B2, “(+)-5-(3,4-difluorophenyl)-5-[(3-methyl-2-oxopyridin-1(2H)-yl)methyl]imidazolidine-2,4-dione and drug containing same” (KAKEN PHARMACEUTICAL CO., LTD., priority 2013, dated 2016).

Test: Pharmacokinetic study after intravenous and percutaneous administration in hairless mice
Assay type: in vivo
Details: 1 w/v % Macrogol 400 solution, 50 μL/animal, occlusive
Procedure: Test substances (0.1 to 0.5 mg/5 mL/kg) were administered by bolus injection into the tail vein of hairless mice under anesthesia.
A 4 cm^2 administration site (2 cm×2 cm) was marked on the back skin of hairless mice under anesthesia (fed) using an oil-based marker. Test substances were applied to the administration site at 50 μL/animal (1 w/v % Macrogol 400 solution). Gauze (BEMCOT®) about 2 cm×2 cm in size was fixed using double-sided tape to an approximately 4 cm×4 cm polyethylene sheet, and the gauze face was placed over the face on which the test substance had been applied. An adhesive elastic bandage (Elastopore, about 10 cm) was stuck over the gauze to fix and protect the face on which the test substance had been applied. The mice were then returned to its cage. Twenty-four hours after administration, occlusive application was confirmed to have been properly carried out. […]
The cryopreserved plasma obtained by the above method was thawed at room temperature. After removing the protein using methanol, the concentration of the test substance in the plasma was measured. […]
Transdermal absorption rate was calculated using the following equation by calculating the AUC (area under the curve of the concentration in plasma) from the plasma concentration of the test substance measured by the method described above. […]

Cc1cccn(CC2(c3ccc(F)c(F)c3)NC(=O)NC2=O)c1=O (single isomer, unassigned; (+)) [(+)-5-(3,4-difluorophenyl)-5-[(3-methyl-2-oxopyridin-1(2H)-yl)methyl]imidazolidine-2,4-dione]
Transdermal absorbability after percutaneous administration: good transdermal absorbability
